Data taken from patent US20240099944A1, “Stable Skin Care Compositions Containing a Retinoid” (priority 2022, published 2024).

Assay: Yellow discoloration (b-value) by Color Test Method, accelerated stability 60° C. for two weeks
Assay type: physicochemical
Settings: away from direct light, Example 2 with additional ingredient compared to Example 2
Description: This test was performed under accelerated stability conditions of 60° C., away from direct light for two weeks and the samples were stored in containers that limited the free flow of oxygen. […] The b-value was determined by the Color Test Method, described hereafter.
In Example 2, the DMDM hydantoin and iodopropynyl butylcarbamate preservative is replaced with a preservative system comprising hydroxyacetophenone and phenoxyethanol.
To measure the color of the compositions of the present invention, approximately 8 mL of the product to be tested is transferred into a petri dish (35×10 mm disposable) using a syringe. The Petri dish is then placed on the black half of a standard opacity chart (Form N2A, Leneta Company of Manwah, NJ or the equivalent thereof, of which the top half is black and the bottom half is white). The color (L, a, and b values) of the product in the petri dish is then measured using an integrated sphere spectrophotometer with settings selected to exclude specular reflection. The value for “a” correlates to a value along the red-green (horizontal) axis, and the value for “b” correlates to a value along the blue-yellow (vertical) axis. […] A more positive or negative value represents a more intense color. […]

O=S([O-])[O-].[Na+].[Na+] [sodium sulfite]
b-value vs. Example 2 (Control): dramatically reduced the composition's b-value
